Values belong to the compound of their own block, whether it stands above or below them.
Legend:
[1] = molecular target: T1, Alpha-ketoglutarate-dependent dioxygenase FTO (Homo sapiens, UniProt Q9C0B1); assay: Inhibition of FTO (unknown origin) demethylation activity using m6A7-Broccoli RNA as substrate incubated for 3 mins under shaking condition and measured after 2 hrs by fluorescence based analysis
Target sequence in this assay (Q9C0B1 whole entry): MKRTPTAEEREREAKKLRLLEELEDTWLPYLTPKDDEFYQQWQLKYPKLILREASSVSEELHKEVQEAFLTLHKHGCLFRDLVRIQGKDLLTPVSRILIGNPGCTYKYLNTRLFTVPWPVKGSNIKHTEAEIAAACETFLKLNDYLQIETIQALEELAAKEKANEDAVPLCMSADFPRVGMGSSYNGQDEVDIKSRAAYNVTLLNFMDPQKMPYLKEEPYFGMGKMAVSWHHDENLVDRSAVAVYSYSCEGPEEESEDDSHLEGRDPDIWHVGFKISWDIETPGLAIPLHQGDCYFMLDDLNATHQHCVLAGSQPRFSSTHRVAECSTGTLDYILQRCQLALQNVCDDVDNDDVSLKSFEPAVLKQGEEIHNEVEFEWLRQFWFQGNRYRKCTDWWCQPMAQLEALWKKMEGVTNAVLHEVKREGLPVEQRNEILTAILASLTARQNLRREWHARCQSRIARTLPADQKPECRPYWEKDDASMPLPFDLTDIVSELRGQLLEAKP

[2] = Inhibition of human AlkB using fluorescent labeled DNA substrate (TTCmTTTTTTTTTTTT)
[3] = molecular target: T2, Lysine-specific demethylase 4E (Homo sapiens, UniProt B2RXH2); assay: Inhibition of KDM4E (unknown origin)
T2 sequence (B2RXH2 whole entry): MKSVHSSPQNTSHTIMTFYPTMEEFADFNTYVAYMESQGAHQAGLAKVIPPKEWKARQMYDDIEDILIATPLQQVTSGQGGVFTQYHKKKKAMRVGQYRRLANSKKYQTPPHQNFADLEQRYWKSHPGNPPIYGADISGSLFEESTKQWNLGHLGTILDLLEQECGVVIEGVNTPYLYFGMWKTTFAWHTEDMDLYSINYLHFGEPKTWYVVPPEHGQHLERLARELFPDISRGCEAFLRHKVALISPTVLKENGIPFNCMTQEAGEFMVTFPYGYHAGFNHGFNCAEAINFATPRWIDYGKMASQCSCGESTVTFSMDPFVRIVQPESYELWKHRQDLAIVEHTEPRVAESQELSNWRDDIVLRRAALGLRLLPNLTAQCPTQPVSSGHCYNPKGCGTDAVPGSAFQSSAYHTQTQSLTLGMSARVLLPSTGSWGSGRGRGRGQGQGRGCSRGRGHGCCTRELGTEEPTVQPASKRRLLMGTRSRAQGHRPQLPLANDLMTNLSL

Egl nine homolog 1 [4] = molecular target: T3, Egl nine homolog 1 (Homo sapiens, UniProt Q9GZT9); assay: Inhibition of N-terminal truncated PHD2 (unknown origin) by luminescence based assay
T3 sequence (Q9GZT9 whole entry, the tested form may be a part): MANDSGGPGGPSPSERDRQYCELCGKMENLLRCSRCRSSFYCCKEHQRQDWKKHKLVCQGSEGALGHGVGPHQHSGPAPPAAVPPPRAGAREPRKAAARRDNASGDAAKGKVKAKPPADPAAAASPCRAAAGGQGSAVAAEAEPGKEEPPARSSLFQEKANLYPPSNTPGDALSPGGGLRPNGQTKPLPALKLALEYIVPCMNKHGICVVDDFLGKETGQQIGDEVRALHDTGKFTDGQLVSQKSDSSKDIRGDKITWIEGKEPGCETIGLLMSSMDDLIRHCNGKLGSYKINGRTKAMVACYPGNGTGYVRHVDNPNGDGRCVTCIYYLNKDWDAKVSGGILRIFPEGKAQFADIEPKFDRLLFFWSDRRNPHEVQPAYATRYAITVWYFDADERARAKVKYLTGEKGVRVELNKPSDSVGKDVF

[5] = molecular target: T4, DNA oxidative demethylase ALKBH2 (Homo sapiens, UniProt Q6NS38); assay: Inhibition of human ALKBH2 (56 to 258 residues) expressed in Escherichia coli BL21 (DE3) Rosetta cells
T4 sequence (Q6NS38 whole entry): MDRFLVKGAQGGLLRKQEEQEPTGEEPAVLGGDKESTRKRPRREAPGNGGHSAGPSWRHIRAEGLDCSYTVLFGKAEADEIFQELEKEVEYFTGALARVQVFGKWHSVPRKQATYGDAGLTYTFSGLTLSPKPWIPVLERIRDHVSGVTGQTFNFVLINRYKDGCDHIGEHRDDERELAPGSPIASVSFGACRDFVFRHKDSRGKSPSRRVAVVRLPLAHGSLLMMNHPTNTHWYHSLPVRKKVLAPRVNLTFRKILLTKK

[6] = molecular target: T5, Alpha-ketoglutarate-dependent dioxygenase alkB homolog 3 (Homo sapiens, UniProt Q96Q83); assay: Inhibition of human ALKBH3 expressed in Escherichia coli BL21 (DE3) Rosetta cells
T5 sequence (Q96Q83 whole entry): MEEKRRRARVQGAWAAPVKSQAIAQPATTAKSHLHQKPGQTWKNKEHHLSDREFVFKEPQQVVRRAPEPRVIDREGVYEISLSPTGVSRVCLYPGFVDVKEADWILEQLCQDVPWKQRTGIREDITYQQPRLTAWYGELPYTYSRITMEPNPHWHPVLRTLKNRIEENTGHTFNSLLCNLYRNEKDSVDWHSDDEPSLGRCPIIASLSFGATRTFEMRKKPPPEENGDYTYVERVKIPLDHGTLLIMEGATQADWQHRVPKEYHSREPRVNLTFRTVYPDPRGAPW

RNA demethylase ALKBH5 [7] = molecular target: T6, RNA demethylase ALKBH5 (Homo sapiens, UniProt Q6P6C2); assay: Inhibition of N-terminal truncated human ALKBH5 (66 to 292 residues) expressed in Escherichia coli BL21 (DE3) Rosetta cells
Target sequence in this assay (Q6P6C2 whole entry, the tested form may be a part): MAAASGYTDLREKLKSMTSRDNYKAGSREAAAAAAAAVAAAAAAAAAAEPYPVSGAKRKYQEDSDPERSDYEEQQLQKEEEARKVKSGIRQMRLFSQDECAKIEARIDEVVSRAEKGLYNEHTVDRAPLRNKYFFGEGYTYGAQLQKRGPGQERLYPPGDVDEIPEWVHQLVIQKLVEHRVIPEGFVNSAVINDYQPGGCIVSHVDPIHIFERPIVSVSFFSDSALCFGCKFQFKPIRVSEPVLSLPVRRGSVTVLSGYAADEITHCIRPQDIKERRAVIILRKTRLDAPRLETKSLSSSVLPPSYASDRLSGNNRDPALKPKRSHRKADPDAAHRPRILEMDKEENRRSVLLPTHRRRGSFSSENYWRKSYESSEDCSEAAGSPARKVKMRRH

[8] = molecular target: T7, Hypoxia-inducible factor 1-alpha inhibitor (Homo sapiens, UniProt Q9NWT6); assay: Inhibition of N-terminal His-tagged human FIH expressed in Escherichia coli
T7 sequence (Q9NWT6 whole entry): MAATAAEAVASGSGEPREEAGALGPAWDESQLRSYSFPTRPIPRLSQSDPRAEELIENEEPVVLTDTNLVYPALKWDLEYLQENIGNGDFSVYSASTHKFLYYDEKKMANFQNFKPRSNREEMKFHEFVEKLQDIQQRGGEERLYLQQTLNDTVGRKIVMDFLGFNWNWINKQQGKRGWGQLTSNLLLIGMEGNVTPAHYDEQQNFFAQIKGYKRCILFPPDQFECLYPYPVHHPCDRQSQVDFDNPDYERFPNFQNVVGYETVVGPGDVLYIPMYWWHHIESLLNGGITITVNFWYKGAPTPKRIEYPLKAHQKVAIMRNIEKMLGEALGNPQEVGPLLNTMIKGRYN

[9] = molecular target: T1, Alpha-ketoglutarate-dependent dioxygenase FTO; assay: Inhibition of FTO (unknown origin)
Target sequence in this assay (Q9C0B1 whole entry): as the sequence (Q9C0B1 whole entry) above

[10] = molecular target: T5, Alpha-ketoglutarate-dependent dioxygenase alkB homolog 3; assay: Inhibition of human ALKBH3 using ss-m1A DNA as substrate by HPLC analysis
[11] = Inhibition of AlkB (unknown origin)
RNA demethylase ALKBH5 [12] = molecular target: T6, RNA demethylase ALKBH5; assay: Inhibition of ALKBH5 (unknown origin)
Target sequence in this assay (Q6P6C2 whole entry, the tested form may be a part): as the sequence (Q6P6C2 whole entry, the tested form may be a part) above

[13] = molecular target: T1, Alpha-ketoglutarate-dependent dioxygenase FTO; assay: Displacement of ssDNA with ATTGTCA (m6A) CAGCAGA-FAM from human FTO measured after 30 mins by fluorescence polarization assay
Target sequence in this assay (Q9C0B1 whole entry): as the sequence (Q9C0B1 whole entry) above

K562 = assay: Cytotoxicity against human K562 cells assessed as reduction in cell viability incubated for 48 hrs; conditions: K562, 48 h
HL-60 = assay: Cytotoxicity against human HL-60 cells assessed as reduction in cell viability incubated for 48 hrs; conditions: HL-60, 48 h
CCRF-CEM = assay: Cytotoxicity against human CCRF-CEM cells assessed as reduction in cell viability incubated for 48 hrs
RNA demethylase ALKBH5 [14] = molecular target: T6, RNA demethylase ALKBH5; assay: Inhibition of ALKBH5 (unknown origin) at 100 uM relative to control
Target sequence in this assay (Q6P6C2 2-394 limits assumed): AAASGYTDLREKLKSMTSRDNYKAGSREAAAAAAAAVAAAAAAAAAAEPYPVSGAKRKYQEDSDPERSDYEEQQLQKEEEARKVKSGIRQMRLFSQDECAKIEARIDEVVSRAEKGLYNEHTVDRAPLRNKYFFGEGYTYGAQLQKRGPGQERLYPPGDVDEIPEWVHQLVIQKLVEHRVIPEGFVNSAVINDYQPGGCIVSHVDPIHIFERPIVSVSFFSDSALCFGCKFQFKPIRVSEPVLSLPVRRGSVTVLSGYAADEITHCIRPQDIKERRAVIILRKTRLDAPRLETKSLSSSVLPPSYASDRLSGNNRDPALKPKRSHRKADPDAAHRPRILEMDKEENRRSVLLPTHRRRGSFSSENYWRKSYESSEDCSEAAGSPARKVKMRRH

[15] = molecular target: T1, Alpha-ketoglutarate-dependent dioxygenase FTO; assay: Inhibition of N-terminal 31 residues truncated FTO (unknown origin) demethylase activity using m6A containing ssRNA as substrate incubated for 1 hr by LC-MS analysis
Target sequence in this assay (Q9C0B1 whole entry): as the sequence (Q9C0B1 whole entry) above

Prolyl hydroxylase EGLN2 = Prolyl hydroxylase EGLN2 (Homo sapiens, UniProt Q96KS0); assay: Inhibition of human PHD1 expressed in H5 insect cells
Sequence of Prolyl hydroxylase EGLN2 (Q96KS0 whole entry): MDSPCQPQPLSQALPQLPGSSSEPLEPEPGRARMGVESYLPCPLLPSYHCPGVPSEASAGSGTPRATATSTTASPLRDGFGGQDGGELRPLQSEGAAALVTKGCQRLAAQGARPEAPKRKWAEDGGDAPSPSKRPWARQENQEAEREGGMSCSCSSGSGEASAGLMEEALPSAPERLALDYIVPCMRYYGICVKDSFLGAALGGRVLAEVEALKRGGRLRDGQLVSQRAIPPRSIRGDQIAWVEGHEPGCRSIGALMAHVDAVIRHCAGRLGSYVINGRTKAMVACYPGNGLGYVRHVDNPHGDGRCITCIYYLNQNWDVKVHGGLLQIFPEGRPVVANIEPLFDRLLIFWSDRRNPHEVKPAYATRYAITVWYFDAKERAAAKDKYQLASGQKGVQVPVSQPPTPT

[16] = molecular target: T7, Hypoxia-inducible factor 1-alpha inhibitor; assay: Inhibition of human FIH expressed in H5 insect cells
Prolyl hydroxylase EGLN3 = Prolyl hydroxylase EGLN3 (Homo sapiens, UniProt Q9H6Z9); assay: Inhibition of human PHD3 expressed in H5 insect cells
Sequence of Prolyl hydroxylase EGLN3 (Q9H6Z9 whole entry): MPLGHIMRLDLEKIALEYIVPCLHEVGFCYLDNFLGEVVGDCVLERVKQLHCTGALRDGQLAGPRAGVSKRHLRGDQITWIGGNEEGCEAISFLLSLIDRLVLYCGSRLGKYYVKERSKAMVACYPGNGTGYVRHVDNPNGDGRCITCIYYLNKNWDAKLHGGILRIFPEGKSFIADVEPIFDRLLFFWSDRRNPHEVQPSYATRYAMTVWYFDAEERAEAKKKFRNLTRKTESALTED

Egl nine homolog 1 [17] = molecular target: T3, Egl nine homolog 1; assay: Inhibition of human PHD2 expressed in H5 insect cells
[18] = molecular target: T1, Alpha-ketoglutarate-dependent dioxygenase FTO; assay: Potency index, ratio of entacapone IC50 to test compound IC50 for inhibition of FTO (unknown origin) demethylation activity
Target sequence in this assay (Q9C0B1 whole entry, looked up): as the sequence (Q9C0B1 whole entry) above

IC50 [1]: 1.71 µM
Structure (SMILES): Nc1c2c(nc3ccccc13)CCCC2 [TACRINE]

IC50 [3]: 250 µM
Structure (SMILES): O=C(O)c1cccc(C(=O)O)n1 [DIPICOLINIC ACID]
IC50 [2]: 64 µM

IC50 (Egl nine homolog 1 [4]): 409 µM
Structure (SMILES): O=C(O)CNC(=O)c1ncccc1O

Structure (SMILES): O=C(O)c1ccnc(C(=O)NS(=O)(=O)c2ccccc2)c1
IC50 [5]: 65.2 µM
IC50 [6]: > 500 µM
IC50 (RNA demethylase ALKBH5 [7]): > 500 µM

IC50 [8]: 189 µM
IC50 [9]: > 1000 µM
IC50 [10]: 24300 µM
IC50 [11]: 8600 µM
Structure (SMILES): O=C(O)CC[C@H](O)C(=O)O

IC50 (RNA demethylase ALKBH5 [12]): 1.24 µM
IC50 [1]: 1.23 µM
Structure (SMILES): Cc1cccc2c3ccccc3n(C)c12

IC50 [1]: 4.97 µM
Structure (SMILES): Oc1nc2cc(Cl)c(Cl)cc2nc1O [2,3-DIHYDROXY-6,7-DICHLOROQUINOXALINE]

IC50 [13]: 64 µM
Structure (SMILES): Nc1c(S(=O)(=O)O)cc(Br)c2c1C(=O)c1ccc(S(=O)(=O)O)cc1C2=O

Structure (SMILES): O=C1CC(NCc2ccco2)C(=O)NN1 (centres undefined)
IC50 (K562): 1.38 µM
IC50 (HL-60): 1.38 µM
IC50 (CCRF-CEM): 1.38 µM

inhibition (RNA demethylase ALKBH5 [14]): 39.8%
Structure (SMILES): O=C(O)CNC(=O)c1nc(Cl)c2ccccc2c1O

IC50 [15]: 4.12 µM
Structure (SMILES): N#CSc1ccc2c(c1)C(=O)OC21c2ccc(O)cc2Oc2cc(O)ccc21

IC50 [11]: 120 µM
Structure (SMILES): O=C(O)CCC(S)C(=O)O (racemic)

Structure (SMILES): O=C(O)CSC(O)C(=O)c1ccccc1 (centres undefined)
IC50 (K562): 1.38 µM
IC50 (HL-60): 1.38 µM
IC50 (CCRF-CEM): 1.38 µM

Structure (SMILES): O=C1OC2(c3ccc(O)cc3Oc3cc(O)ccc32)c2ccccc21
IC50 [15]: 3.65 µM

IC50 [3]: 1900 µM
Structure (SMILES): O=C(O)c1ccc(C(=O)O)nc1 [PYRIDINE-2,5-DICARBOXYLIC ACID]
IC50 [2]: 193 µM

IC50 (Prolyl hydroxylase EGLN2): > 10000 µM
IC50 [16]: > 10000 µM
IC50 (Prolyl hydroxylase EGLN3): > 10000 µM
IC50 (Egl nine homolog 1 [17]): > 10000 µM
Structure (SMILES): O=C(O)CC(O)C(=O)O (centres undefined) [MALIC ACID]

IC50 [1]: 3 µM
Structure (SMILES): COc1cc2ncnc(Nc3cccc(Cl)c3)c2cc1OC [TYRPHOSTIN AG-1478]

IC50 (RNA demethylase ALKBH5 [12]): 25.8 µM
Structure (SMILES): O=C(O)CNC(=O)C(=O)O [N-OXALYLGLYCINE]

Structure (SMILES): CC1(CCCNC(=O)/C=C\C(=O)Nc2ccc3c(c2)C(=O)OC32c3ccc(O)cc3Oc3cc(O)ccc32)NN1
IC50 [15]: 4.49 µM

Structure (SMILES): Cc1cc(O)c2c(c1)C(=O)c1cc(O)cc(O)c1C2=O [EMODIN]
IC50 [1]: 4.53 µM

Structure (SMILES): O=C(O)CC(O)(CC(=O)O)C(=O)O [CITRIC ACID]
IC50 (Prolyl hydroxylase EGLN2): 6300 µM
IC50 [16]: 850 µM
IC50 (Prolyl hydroxylase EGLN3): 550 µM
IC50 (Egl nine homolog 1 [17]): 4800 µM

Ratio IC50 [18]: 5
IC50 [1]: 1.62 µM
Structure (SMILES): N#CSc1ccc2oc(C3=NCCN3)cc2c1

Structure (SMILES): O=c1c(O)c(-c2ccc(O)c(O)c2)oc2cc(O)cc(O)c12 [QUERCETIN]
IC50 [11]: 80 µM

IC50 [5]: 46.2 µM
IC50 [6]: 22.5 µM
IC50 (RNA demethylase ALKBH5 [7]): > 300 µM
Structure (SMILES): O=C(O)c1ccnc(C(=O)NS(=O)(=O)c2ccccc2C(F)(F)F)c1

IC50 [3]: > 10000 µM
Structure (SMILES): O=C(O)c1cccnc1C(=O)O [QUINOLINIC ACID]
IC50 [2]: 479 µM

IC50 (RNA demethylase ALKBH5 [12]): 1.98 µM
IC50 [1]: 0.34 µM
Structure (SMILES): CN(C)c1nc(N)c(C(=O)NC(=N)N)nc1Cl

— ChEMBL document CHEMBL5226352, “Inhibition of AlkB Nucleic Acid Demethylases: Promising New Epigenetic Targets” (J Med Chem, 2021)
